Laboratory results: patent US8889666B2, “Quinolyl pyrrolo pyrimidyl condensed-ring compound and salt thereof” (Taiho Pharmaceutical Co., Ltd., priority 2012, dated 2014)
pIC50: −log10 of the molar value.

What was measured:
[1] = tested on: lung adenocarcinoma cell line NCI-H1975 expressing EGFR (T790M/L858R); assay: Growth inhibitory activity, EGFR (T790M/L858R)-expressing cell line; type: cell-based, human; details: for GI50: Homo sapiens, NCI-H1975, 72 h, three days culture, CellTiter-Glo; for growth-inhibitory activities for EGFR (d746-750)-expressing and EGFR (T790M/L858R)-expressing cells, in words: summary of Table 2, NCI-H1975 and HCC827
Description: (§1) 1) A lung adenocarcinoma cell line NCI-H1975 expressing EGFR (T790M/L858R), 2) a lung adenocarcinoma cell line HCC827 expressing EGFR (d746-750), and 3) a human epidermoid carcinoma cell line A431 expressing EGFR (WT) were each suspended in the medium recommended by ATCC. The cell suspension was seeded in each well of a 384-well flat microplate or 96-well flat plate, and cultured in an incubator containing 5% carbon dioxide gas at 37° C. for one day. The compound of the present invention and the reference compound were dissolved in DMSO, and then the DMSO solution of each test compound was diluted with DMSO to a concentration 200 times higher than the final concentration. The diluted DMSO solution of the test compound was diluted with the medium used to suspend each cell line, and the diluted solution was added to each well of the cell culture plate so that the final concentration of DMSO was 0.5%. Then, the cells were cultured in an incubator containing 5% carbon dioxide gas at 37° C. for three days. The number of cells was measured at the time of initiation and termination of the culture by using a CellTiter-Glo Assay (produced by Promega) according to a protocol recommended by Promega. The cell growth inhibition rate was calculated by the following formula, and the concentration of the test compound at which the cell growth was inhibited by 50% (GI50 (nM)) was determined. Growth inhibition rate (%)=(C−T)/(C−C0)×100
(§2) T: Luminescence intensity of well to which test compound was added
(§3) C: Luminescence intensity of well to which test compound was not added
(§4) C0: Luminescence intensity of well measured before addition of test compound

EGFR (d746-750/T790M) = target: T1, EGFR (d746-750/T790M) (Homo sapiens, UniProt P00533, DEL746-750/T790M); assay: EGFR (d746-750/T790M) kinase inhibitory activity (in vitro); type: biochemical; details: recombinant human protein, ATP 1.5 μM
T1 construct: purchased Carna Biosciences, Inc
Description: (§5) The measurement method was as follows. The compounds I-1, I-2, I-3, I-4, I-5, I-6, I-7, I-8, and I-9 were each dissolved in dimethylsulfoxide (DMSO), and then each serially diluted with DMSO. Next, the EGFR (T790M/L858R) protein, substrate peptide (final concentration: 250 nM), magnesium chloride (final concentration: 10 mM), manganese chloride (final concentration: 10 mM), ATP (final concentration: 1 μM), and the diluted DMSO solution of each compound (final concentration of DMSO: 2.5%) were added to a kinase reaction buffer (Carna Biosciences, Inc.), and the mixture was incubated at 25° C. for 120 minutes for kinase reaction. EDTA was added thereto to a final concentration of 24 mM to thereby terminate the reaction. Then, a detection solution containing europium (Eu)-labeled anti-phosphorylated tyrosine antibody PT66 (PerkinElmer) and SureLight APC-SA (PerkinElmer) was added, and the resulting mixture was allowed to stand at room temperature for 2 hours or more. Finally, the intensity of fluorescence under the excitation light with a wavelength of 337 nm was measured by a PHERAstar FS (BMG LABTECH) at two wavelengths of 620 nm and 665 nm. The level of phosphorylation of each test sample was calculated from the fluorescence intensity ratio of the two wavelengths in DMSO control and in the test sample, and the compound concentration at which phosphorylation was inhibited by 50% was determined as the IC50 value (nM) of each compound.
2) Measurement of EGFR (d746-750/T790M) Kinase Inhibitory Activity
The inhibitory activities of the compounds I-1, I-2, I-3, I-4, I-5, I-6, I-7, I-8, and I-9 for EGFR (d746-750/T790M) kinase were measured.
(§6) The materials were as follows. The EGFR (d746-750/T790M) was a purified recombinant human EGFR (d746-750/T790M) protein purchased from Carna Biosciences, Inc. The final concentration of ATP was 1.5 μM. As for other conditions, the same materials and methods as those used in the measurement of EGFR (T790M/L858R) kinase inhibitory activity were used to determine the IC50 value (nM) of each compound.

EGFR (L858R) = target: T2, EGFR (L858R) (Homo sapiens, UniProt P00533, L858R); assay: EGFR (L858R) kinase inhibitory activity (in vitro); type: biochemical; details: recombinant human protein, ATP 4 μM
T2 construct: purchased Carna Biosciences, Inc
Description: as §5
3) Measurement of EGFR (L858R) Kinase Inhibitory Activity
The inhibitory activities of the compounds I-1, I-2, I-3, I-4, I-5, I-6, I-7, I-8, and I-9 for EGFR (L858R) kinase were measured.
as §6, with “(L858R)” for “(d746-750/T790M)”, “4” for “1.5”

[2] = tested on: human epidermoid carcinoma cell line A431 expressing EGFR (WT); assay: Growth inhibitory activity, EGFR (WT)-expressing cell line; type: cell-based; details: for GI50: Homo sapiens, A-431, 72 h, three days culture, CellTiter-Glo; for growth-inhibitory activities for EGFR (WT)-expressing cells compared with cells expressing mutant EGFRs, in words: summary of Table 2
Description: as §1, §2, §3, §4

EGFR (T790M/L858R) = target: T3, EGFR (T790M/L858R) (Homo sapiens, UniProt P00533, L858R/T790M); assay: EGFR (T790M/L858R) kinase inhibitory activity (in vitro); type: biochemical; details: for pIC50: recombinant human protein, ATP 1 μM, 120 minutes; for inhibitory activities for EGFR (L858R), EGFR (d746-750), EGFR (T790M/L858R) and EGFR (d746-750/T790M), in words: summary of Table 1, all four mutant kinases
T3 construct: purchased Carna Biosciences, Inc
Description: 1) Measurement of EGFR (T790M/L858R) Kinase Inhibitory Activity
The inhibitory activities of the compounds I-1, I-2, I-3, I-4, I-5, I-6, I-7, I-8, and I-9 for EGFR (T790M/L858R) kinase were measured.
The materials were as follows. The substrate peptide was a biotinylated peptide (biotin-EEPLYWSFPAKKK) synthesized by reference to the amino acid sequence of FL-Peptide 22 (a reagent for LabChip® Series; Caliper Life Sciences, Inc.). The EGFR (T790M/L858R) was a purified recombinant human EGFR (T790M/L858R) protein purchased from Carna Biosciences, Inc.
as §5

EGFR (d746-750) = target: T4, EGFR (d746-750) (Homo sapiens, UniProt P00533, DEL746-750); assay: EGFR (d746-750) kinase inhibitory activity (in vitro); type: biochemical; details: recombinant human protein, ATP 5 μM, 90 minutes
T4 construct: purchased Carna Biosciences, Inc
Description: as §5
4) Measurement of EGFR (d746-750) Kinase Inhibitory Activity
The inhibitory activities of the compounds I-1, I-2, I-3, I-4, I-5, I-6, I-7, I-8, and I-9 for EGFR (d746-750) kinase activity were measured.
as §6, with “(d746-750)” for “(d746-750/T790M)”, “5” for “1.5”, “μM. The incubation time for the kinase reaction was 90 minutes.” for “μM.”

EGFR (WT) = target: T5, EGFR (WT) (Homo sapiens, UniProt P00533); assay: EGFR (WT) kinase inhibitory activity (in vitro); type: biochemical; details: for pIC50: cytoplasmic domain of human EGFR (WT), ATP 4.7 μM, substrate peptide 500 nM; for inhibitory activities for EGFR (WT) compared with the mutant EGFR proteins, in words: summary of Table 1
T5 construct: the cytoplasmic domain of human EGFR (WT); FLAG (N); made in house; host or cells: baculovirus expression system, insect Sf9 cells
Description: as §5
The inhibitory activities of the compounds I-1, I-2, I-3, I-4, I-5, I-6, I-7, I-8, and I-9 on EGFR (WT) kinase were measured.
The materials were as follows. As the EGFR (WT), the cytoplasmic domain of human EGFR (WT) in which a FLAG tag was fused to the N-terminus was expressed in a baculovirus expression system using insect Sf9 cells, and purified with anti-FLAG antibody agarose (Sigma-Aldrich). The final concentration of the substrate peptide was 500 nM, and the final concentration of ATP was 4.7 μM. As for other conditions, the same materials and methods as those used in the measurement of EGFR (T790M/L858R) kinase inhibitory activity were used to determine the IC50 value (nM) of each compound.

[3] = tested on: lung adenocarcinoma cell line HCC827 expressing EGFR (d746-750); assay: Growth inhibitory activity, EGFR (d746-750)-expressing cell line; type: cell-based; details: Homo sapiens, HCC827, 72 h; three days culture, CellTiter-Glo
Description: as §1, with “Then, the cells were cultured in an incubator containing 5% carbon dioxide gas at 37° C. for three days.” left out, “The cell growth inhibition rate was calculated by the following formula, and the concentration of the test compound at which the cell growth was inhibited by 50% (GI50 (nM)) was determined. Growth inhibition rate (%)=(C−T)/(C−C0)×100” left out
as §2, §3, §4

T4 sequence (P00533 with tags, fused parts or gaps DEL746-750 limits assumed): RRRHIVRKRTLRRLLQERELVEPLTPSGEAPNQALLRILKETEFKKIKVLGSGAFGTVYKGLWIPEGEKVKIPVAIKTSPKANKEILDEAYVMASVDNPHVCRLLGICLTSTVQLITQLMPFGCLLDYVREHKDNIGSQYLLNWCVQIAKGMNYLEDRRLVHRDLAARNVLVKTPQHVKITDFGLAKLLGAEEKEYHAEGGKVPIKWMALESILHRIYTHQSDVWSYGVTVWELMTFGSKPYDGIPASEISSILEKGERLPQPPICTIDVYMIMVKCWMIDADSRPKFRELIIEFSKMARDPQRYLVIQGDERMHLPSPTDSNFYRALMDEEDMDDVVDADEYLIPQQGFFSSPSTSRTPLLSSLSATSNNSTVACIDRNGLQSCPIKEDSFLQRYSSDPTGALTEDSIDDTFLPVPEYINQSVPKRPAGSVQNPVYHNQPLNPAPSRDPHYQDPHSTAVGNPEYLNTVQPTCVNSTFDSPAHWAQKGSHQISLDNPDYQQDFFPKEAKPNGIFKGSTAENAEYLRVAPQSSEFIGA
T2 sequence (P00533 25-1210 L858R): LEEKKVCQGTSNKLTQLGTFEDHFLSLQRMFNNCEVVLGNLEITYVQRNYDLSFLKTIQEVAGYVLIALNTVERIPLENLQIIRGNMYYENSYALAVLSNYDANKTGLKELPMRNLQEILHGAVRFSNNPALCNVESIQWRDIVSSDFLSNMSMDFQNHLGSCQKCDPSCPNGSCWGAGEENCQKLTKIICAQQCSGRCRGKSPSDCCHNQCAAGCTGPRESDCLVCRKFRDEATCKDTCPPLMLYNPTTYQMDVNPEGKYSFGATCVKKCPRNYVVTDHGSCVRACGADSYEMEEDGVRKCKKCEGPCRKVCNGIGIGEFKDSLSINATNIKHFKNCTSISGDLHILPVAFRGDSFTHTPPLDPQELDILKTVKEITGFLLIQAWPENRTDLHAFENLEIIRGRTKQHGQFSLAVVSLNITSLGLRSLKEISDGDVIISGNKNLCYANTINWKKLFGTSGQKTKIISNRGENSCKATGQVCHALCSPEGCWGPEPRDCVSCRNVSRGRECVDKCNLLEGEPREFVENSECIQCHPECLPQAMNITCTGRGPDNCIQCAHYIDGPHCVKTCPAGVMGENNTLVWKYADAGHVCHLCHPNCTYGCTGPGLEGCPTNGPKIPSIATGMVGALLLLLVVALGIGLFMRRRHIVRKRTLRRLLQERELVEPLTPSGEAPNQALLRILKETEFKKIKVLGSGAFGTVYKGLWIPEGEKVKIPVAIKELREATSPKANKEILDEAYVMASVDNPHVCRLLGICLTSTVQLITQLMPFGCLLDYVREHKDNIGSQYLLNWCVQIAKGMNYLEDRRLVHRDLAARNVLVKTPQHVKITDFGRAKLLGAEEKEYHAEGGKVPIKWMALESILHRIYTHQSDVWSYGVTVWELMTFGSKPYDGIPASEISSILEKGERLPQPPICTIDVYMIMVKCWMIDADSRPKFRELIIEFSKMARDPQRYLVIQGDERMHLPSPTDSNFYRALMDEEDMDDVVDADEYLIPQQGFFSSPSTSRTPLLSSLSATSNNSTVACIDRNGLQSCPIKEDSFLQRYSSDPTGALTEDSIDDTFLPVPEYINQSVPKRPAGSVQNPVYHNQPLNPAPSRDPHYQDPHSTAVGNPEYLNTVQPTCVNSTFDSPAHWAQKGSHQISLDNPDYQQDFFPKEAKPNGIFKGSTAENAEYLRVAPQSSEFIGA
T5 sequence (P00533 669-1210 limits assumed): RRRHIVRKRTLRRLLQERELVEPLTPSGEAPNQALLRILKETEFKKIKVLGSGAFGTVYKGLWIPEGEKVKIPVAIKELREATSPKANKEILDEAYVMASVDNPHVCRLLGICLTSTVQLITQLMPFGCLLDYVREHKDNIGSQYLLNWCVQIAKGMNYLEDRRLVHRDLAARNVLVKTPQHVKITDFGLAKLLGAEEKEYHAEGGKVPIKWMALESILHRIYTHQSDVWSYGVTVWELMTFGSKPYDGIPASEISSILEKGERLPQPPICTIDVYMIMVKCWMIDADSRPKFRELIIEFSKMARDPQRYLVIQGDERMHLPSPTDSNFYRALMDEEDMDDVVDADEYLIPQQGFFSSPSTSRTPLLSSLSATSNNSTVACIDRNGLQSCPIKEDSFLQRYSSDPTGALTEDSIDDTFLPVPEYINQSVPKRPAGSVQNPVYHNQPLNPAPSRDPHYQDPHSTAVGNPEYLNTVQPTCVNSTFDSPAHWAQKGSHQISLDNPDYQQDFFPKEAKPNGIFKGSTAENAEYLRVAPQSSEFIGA
T1 sequence (P00533 with tags, fused parts or gaps DEL746-750/T790M limits assumed): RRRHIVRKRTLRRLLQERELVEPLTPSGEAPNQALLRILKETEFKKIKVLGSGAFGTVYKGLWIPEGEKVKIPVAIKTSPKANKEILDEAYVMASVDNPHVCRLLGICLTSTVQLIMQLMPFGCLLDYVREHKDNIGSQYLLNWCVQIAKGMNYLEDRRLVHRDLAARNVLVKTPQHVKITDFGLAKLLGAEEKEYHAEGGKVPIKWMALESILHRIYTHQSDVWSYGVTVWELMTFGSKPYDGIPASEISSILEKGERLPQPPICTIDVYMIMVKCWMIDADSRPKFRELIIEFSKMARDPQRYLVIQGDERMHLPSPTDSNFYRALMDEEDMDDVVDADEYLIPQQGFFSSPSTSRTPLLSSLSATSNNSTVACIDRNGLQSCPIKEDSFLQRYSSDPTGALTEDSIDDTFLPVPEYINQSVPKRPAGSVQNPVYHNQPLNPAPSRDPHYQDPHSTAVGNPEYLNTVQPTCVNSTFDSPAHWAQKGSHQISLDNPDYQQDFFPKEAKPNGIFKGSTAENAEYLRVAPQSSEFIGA
T3 sequence (P00533 25-1210 T790M/L858R): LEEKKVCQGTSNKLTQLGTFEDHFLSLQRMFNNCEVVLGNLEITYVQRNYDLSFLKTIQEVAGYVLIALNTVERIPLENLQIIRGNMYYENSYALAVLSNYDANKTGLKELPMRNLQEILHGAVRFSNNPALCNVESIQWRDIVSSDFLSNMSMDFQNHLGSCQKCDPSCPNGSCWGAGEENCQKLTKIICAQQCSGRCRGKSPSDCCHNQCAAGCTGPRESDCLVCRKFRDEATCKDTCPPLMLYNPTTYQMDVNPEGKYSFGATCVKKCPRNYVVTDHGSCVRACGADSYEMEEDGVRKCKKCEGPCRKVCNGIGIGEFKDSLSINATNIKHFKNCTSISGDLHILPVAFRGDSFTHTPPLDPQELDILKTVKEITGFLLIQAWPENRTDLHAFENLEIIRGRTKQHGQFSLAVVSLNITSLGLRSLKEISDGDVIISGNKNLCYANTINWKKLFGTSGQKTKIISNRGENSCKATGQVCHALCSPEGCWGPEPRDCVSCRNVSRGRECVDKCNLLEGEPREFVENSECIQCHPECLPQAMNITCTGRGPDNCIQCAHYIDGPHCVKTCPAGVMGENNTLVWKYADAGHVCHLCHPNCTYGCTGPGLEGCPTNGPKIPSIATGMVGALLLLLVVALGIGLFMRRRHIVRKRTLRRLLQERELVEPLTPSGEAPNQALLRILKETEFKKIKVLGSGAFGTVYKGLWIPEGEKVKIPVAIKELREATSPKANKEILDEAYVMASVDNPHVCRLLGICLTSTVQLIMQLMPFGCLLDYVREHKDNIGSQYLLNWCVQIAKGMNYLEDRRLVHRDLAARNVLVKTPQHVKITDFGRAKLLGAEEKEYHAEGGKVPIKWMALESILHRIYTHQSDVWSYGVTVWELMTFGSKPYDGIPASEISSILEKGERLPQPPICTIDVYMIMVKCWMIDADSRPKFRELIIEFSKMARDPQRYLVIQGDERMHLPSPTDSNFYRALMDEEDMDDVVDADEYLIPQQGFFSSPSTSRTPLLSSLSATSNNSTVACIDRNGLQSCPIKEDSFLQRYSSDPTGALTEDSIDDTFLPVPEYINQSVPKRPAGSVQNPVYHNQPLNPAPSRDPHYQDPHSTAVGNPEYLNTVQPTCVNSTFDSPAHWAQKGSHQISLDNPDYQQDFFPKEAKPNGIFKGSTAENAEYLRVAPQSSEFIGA

Row | Compound | GI50 [1] [nM] | growth-inhibitory activities for EGFR (d746-750)-expressing and EGFR (T790M/L858R)-expressing cells, in words [1] | pIC50 (EGFR (d746-750/T790M)) | pIC50 (EGFR (L858R)) | GI50 [2] [nM] | growth-inhibitory activities for EGFR (WT)-expressing cells compared with cells expressing mutant EGFRs, in words [2] | pIC50 (EGFR (T790M/L858R)) | inhibitory activities for EGFR (L858R), EGFR (d746-750), EGFR (T790M/L858R) and EGFR (d746-750/T790M), in words (EGFR (T790M/L858R)) | pIC50 (EGFR (d746-750)) | pIC50 (EGFR (WT)) | inhibitory activities for EGFR (WT) compared with the mutant EGFR proteins, in words (EGFR (WT)) | GI50 [3] [nM]
1 | C=CC(=O)N[C@H]1CCc2c(-c3cnc4ccccc4c3)c3c(N)ncnc3n2C1 (single isomer, unassigned) [Compound I-2] | 27 | potent growth-inhibitory activities | 9.70 | 9.40 | 590 | weaker growth-inhibitory activities | 9.52 | potent inhibitory activities | 9.40 | 8.37 | lower than those for the above mutant EGFR proteins | 5
2 | C=CC(=O)N(C)C1CCc2c(-c3cnc4ccccc4c3)c3c(N)ncnc3n2C1 (stereo not shown) [Compound I-3, N-(4-amino-5-(quinolin-3-yl)-6,7,8,9-tetrahydropyrimido[5,4-b]indolizin-8-yl)-N-methylacrylamide] | 86 | potent growth-inhibitory activities | 9.22 | 8.89 | 1800 | weaker growth-inhibitory activities | 8.89 | potent inhibitory activities | 9.00 | 7.74 | lower than those for the above mutant EGFR proteins | 10
3 | C=CC(=O)N[C@@H]1CCCc2c(-c3cnc4ccccc4c3)c3c(N)ncnc3n2C1 [Compound I-9, (R)-N-(4-amino-5-(quinolin-3-yl)-7,8,9,10-tetrahydro-6H-pyrimido[5′,4′:4,5]pyrrolo[1,2-a]azepin-9-yl)acrylamide] |  |  | 7.09 | 6.46 |  |  | 6.80 | potent inhibitory activities | 6.57 | 5.44 | lower than those for the above mutant EGFR proteins | 
